Results on 2 compounds are retold here after PubChem BioAssay (NCI).

Where “and” joins values, the source holds several entries; their conditions need not be identical. Equal values may be shown once.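 Where inhibition never reached the appropriate level, the endpoint shown equals the highest concentration tested. Otherwise, values were interpolated linearly from a five-concentration, 48-hour dose response in 96-well plates. The concentration for 50% growth inhibition is given as GI50. TGI: total growth inhibition.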 Bounds are passed on as bounds.

Test systems include HCT-116 colon; MOLT-4 leukemia; RXF 393 renal; SR leukemia; OVCAR-5 ovarian; CAKI-1 renal; HL-60(TB) leukemia; NCI-H226 lung; NCI/ADR-RES ovarian; HCC-2998 colon.
Test in all cases: NCI tumour cell line growth inhibition, 48 h

As to `COc1ccc(/C=C(/C)[N+](=O)[O-])cc1OC`, the GI50 was 1.76 µM and 1.56 µM with HCT-116 colon; 2.94 µM and 3.32 µM in the assay with MOLT-4 leukemia; 1.7 µM and 1.42 µM with RXF 393 renal; 1.26 µM with SR leukemia; 4.12 µM and 5 µM in the assay on OVCAR-5 ovarian; 1.88 µM and 0.338 µM in the assay on CAKI-1 renal. The GI50 is 2.42 µM and 2.47 µM in the assay on HL-60(TB) leukemia; 5.03 µM and 3.71 µM in the assay on NCI-H226 lung; 2.97 µM and 3.25 µM with NCI/ADR-RES ovarian; 1.8 µM and 1.77 µM in the assay with HCC-2998 colon. Further, the TGI with HCT-116 colon is 3.37 µM and 2.98 µM; in the assay with RXF 393 renal it was 3.16 µM and 2.78 µM; in the assay on SR leukemia, 7 µM; in the assay with OVCAR-5 ovarian it was 12.4 µM and 16.1 µM; with CAKI-1 renal, 4.04 µM and 1.46 µM; in the assay on HL-60(TB) leukemia, 5.76 µM and 8.93 µM. In addition, the TGI is 9.63 µM and 13.4 µM in the assay with NCI-H226 lung; 9.77 µM and 13.9 µM in the assay on NCI/ADR-RES ovarian; 3.27 µM and 3.32 µM with HCC-2998 colon.
As to `O=Nc1c(-c2c(O)[nH]c3ncccc23)[nH]c2ccccc12`, the GI50 with HCT-116 colon is 6.12 µM; with MOLT-4 leukemia, 3.4 µM; in the assay with RXF 393 renal, above 100 µM; with SR leukemia it was 0.274 µM; with OVCAR-5 ovarian, 96.9 µM; with CAKI-1 renal, 1.9 µM. Also, the GI50 in the assay with HL-60(TB) leukemia is 7.58 µM; in the assay with NCI-H226 lung it was 15.3 µM; in the assay with NCI/ADR-RES ovarian, above 100 µM; with HCC-2998 colon, above 24.4 µM. Besides, the TGI with HCT-116 colon, in the assay with MOLT-4 leukemia, in the assay on RXF 393 renal, with SR leukemia, in the assay with OVCAR-5 ovarian and in the assay with CAKI-1 renal was above 100 µM throughout. Besides, the TGI in the assay on HL-60(TB) leukemia, in the assay with NCI-H226 lung, in the assay with NCI/ADR-RES ovarian and in the assay on HCC-2998 colon was above 100 µM each time.
